Results on one compound are retold here after patent publication US20250130239A1, “PROTEIN DEGRADER” (University of Dundee, priority 2021, published 2025).

For data set [1], the target named is T1, PPM1H (Q9ULR3), BromoTag C-term (Homo sapiens, UniProt O60885+P40337, L387A).
T1 construct: comprising residues 368-440 of human Brd4; PPM1H (endogenous protein, fusion partner in the same polypeptide); expressed in transfected cells
Kind of data set: Degradation of BromoTag'ed PPM1H by AGB1. The data set is classed as cell-based. An excerpt: (§1) Degradation of a variety of target proteins. […] We performed CRISPR knock-in of the BromoTag, as described, into the endogenous loci of five additional proteins. […] The target proteins of Table 6 are all different, are all known to have different cellular roles and function, intracellular expression, and distinctive turnover rates within cells.

For data set [2], the target named is T2, BromoTag-Brd2 (Homo sapiens, UniProt O60885+P40337, L387A).
T2 construct: comprising residues 368-440 of human Brd4; Brd2 (endogenous protein, fusion partner in the same polypeptide); eGFP-P2A (upstream marker in the knock-in cassette) (N, cleaved yes); expressed in transfected cells; host or cells: HEK293, heterozygous CRISPR knock-in at the endogenous BRD2 locus
T2 sequence (P40337 whole entry, other chains not shown, the tested form may be a part): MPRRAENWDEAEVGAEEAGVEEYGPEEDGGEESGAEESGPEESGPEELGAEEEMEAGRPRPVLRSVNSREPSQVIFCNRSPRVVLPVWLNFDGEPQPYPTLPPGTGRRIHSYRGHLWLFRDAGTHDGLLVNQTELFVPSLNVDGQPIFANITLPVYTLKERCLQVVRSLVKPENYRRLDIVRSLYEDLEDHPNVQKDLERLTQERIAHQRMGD
Description: Dose-response degradation assay (western blot, 6 h) in heterozygous BromoTag-Brd2 HEK293 cells. The class given is cell-based. Here is the method:
Dose-response Degradation Assays. All dose-response degradation assays were performed on the genotype verified heterozygous BromoTag-Brd2 HEK293 cell line. Heterozygous BromoTag-Brd2 HEK293 cells were plated at a density of 5×10^5 cells per well of a six healthy plate a day before initiation of the titration experiment. PROTAC compounds were dissolved in DMSO at a concentration of 10 mM, from these stock concentrations, PROTAC compounds were diluted to appropriate concentrations using DMSO in the range of 10 μM-1 nM. […] Control compounds such as MZ1, cis-MZ1 were similarly dissolved in DMSO to the appropriate concentration. […] Cells were washed twice with PBS before being harvested.
Western Blotting. […] The membranes were blocked for 1 h prior to incubation with the primary antibodies using 5% Milk TBST. […] Following overnight incubation with the primary antibodies at 4° C., the membranes were incubated with secondary antibodies (Anti-rabbit, Abcam AB216773, 1:5000 or anti-mouse, Abcam AB216774, 1:5000) and hFAB™ Rhodamine Anti-Tubulin Antibody (Biorad, 12004165, 1:10000) for one h and then imaged with a Bio-Rad imager (LI-COR Biosciences). All western blots were analysed for band intensities using Image Lab from Bio-Rad (LI-COR, Biosciences). The data extracted from these blots were then plotted and analysed using Prism (v. 8.2.0, GraphPad).

The target in data set [3] is T2, BromoTag-Brd2. Description: Time-course degradation assay in heterozygous BromoTag-Brd2 HEK293 cells. The class given is cell-based. To be noted: 500 nM. The protocol: Time-course Degradation Assay. Time-course degradation assays using PROTACs AGB1, AGB2, and AGB3 were performed on the genotype verified heterozygous BromoTag-Brd2 HEK293 cell line. Heterozygous BromoTag-Brd2 HEK293 cells were plated at a density of 5×10^5 cells per well of a 6 healthy plate a day prior to initiation of the Timecourse assay. PROTAC's AGB1 & AGB2 were diluted in DMSO to a concentration of 1 mM prior to being further diluted 1:2000 in 2 mL of DMEM to a concentration of 500 nM per timepoint. PROTAC AGB3 was diluted in DMSO to a concentration of 2 mM prior to being further diluted 1:2000 in 2 mL of DMEM to a concentration of 1 μM per timepoint. Timepoint range was between 0-36 h. Treatment was applied in a staggered fashion to enable all timepoints to be harvested at the same time.
Western Blotting. All cells were harvested on ice with RIPA lysis, and extraction buffer (ThermoFisher Scientific, 89901) supplemented with protease inhibitor cocktail (Merck, 11697498001) and Benzonase® Nuclease (Sigma, E1014) before being store at −20° C. prior to use. Total protein quantity was determined using the BCA protein assay (#23225, Pierce, Rockford, Illinois). Protein concentration was determined using the BCA assay (ThermoFisher Scientific, 23225). Samples were then prepared and loaded onto NuPAGE™ 4-12% Bis-Tris Midi gels (ThermoFisher Scientific, WG1403A), followed by the transfer of the proteins onto nitrocellulose membranes (EMD Millipore). The membranes were blocked for 1 h prior to incubation with the primary antibodies using 5% Milk TBST. Membranes were probed for Brd2 (Abcam, Ab139690, 1:1000), Brd3 (Abcam, Ab50818, 1:4000), Brd4 (Abcam, Ab128874, 1:1000) or our polyclonal Brd4^BD2 L387A antibody. […] All western blots were analysed for band intensities using Image Lab from Bio-Rad (LI-COR, Biosciences). The data extracted from these blots were then plotted and analysed using Prism (v. 8.2.0, GraphPad).

Data set [4] deals with T3, VPS34/PK3C3 (Q8NEB9), BromoTag N-term (Homo sapiens, UniProt O60885+P40337, L387A).
T3 construct: comprising residues 368-440 of human Brd4; VPS34/PK3C3 (endogenous protein, fusion partner in the same polypeptide); expressed in transfected cells
T3 sequence (P40337 whole entry, other chains not shown, the tested form may be a part): as above
Kind of data set: Degradation of BromoTag'ed VPS34/PK3C3 by AGB1. The data set is classed as cell-based.
Source text: as §1

Data set [5] can be described thus: In vivo PK profiling of AGB1. Set-up: species or system C57BL/6 male mice. Particulars: SC (5 mg/kg), mice. The protocol:
In Vivo PK Profiling. Pharmacokinetic profiling was outsourced and undertaken by Shanghai ChemPartner Co., Ltd. Six to eight-week-old, C57BL/6 male mice purchased from Jihui Laboratory Animal Co. LTD were used in the study. […] The animals were restrained manually at the designated time points (0.083, 0.25, 0.5, 1, 2, 4 and 8 h), approximately 110 μL of blood sample was collected via facial vein into K2EDTA tubes. Three mice per time point were used resulting in a total of […]. Blood sample was put on ice and centrifuged at 2000 g for 5 mins to obtain plasma sample within 15 min. Plasma samples were stored at approximately −70° C. until analysis. A 30 μL aliquot of plasma was added with 200 μL internal standard (Diclofenac, 40 ng/mL) in 1% formic acid in MeCN. The mixture was then vortexed for 1 min and then centrifuged for 10 min at 5800 rpm. 100 μL of supernatant was transferred to a new plate. 0.5 μL of solvent was injected to LC-MS/MS. LC-MS/MS instrument used: SCIEX LC-MS/MS-45 (Triple Quad 6500+). Data was analysed by WinNonLin and Microsoft Excel.

The structures appear in SMILES notation. “And” between values parts separate entries of the source, which are not always exact repeats. Equal entries are not always repeated. Some results are limits rather than exact numbers.

T1 sequence (P40337 whole entry, other chains not shown, the tested form may be a part): as above

For orientation: Dmax means the greatest extent of degradation seen. The low end stands for a partial loss of target, the high end for a fuller loss of target. The term DC50 denotes the concentration at which degradation of the target reaches its halfway point. High values mean degradation only at high concentration, low ones degradation at low concentration. On to `CC[C@@H](C(=O)OCCOCCOCCOCC(=O)N[C@H](C(=O)N1C[C@H](O)C[C@H]1C(=O)NCc1ccc(-c2scnc2C)cc1)C(C)(C)C)[C@@H]1N=C(c2ccc(Cl)cc2)c2c(sc(C)c2C)-n2c(C)nnc21` (single isomer, unassigned) [AGB1 (46)], for which the greatest degradation seen (Dmax) is greater than 95% in data set [1]; 99% at BromoTag-Brd2 [2] (HEK293, Ab: Brd4^BD2 L387A, single stereoisomers, 6 h); greater than 99% in data set [4]. Moreover, the pDC50 in data set [1] (BromoTag'ed PPM1H, C-term tag) is greater than 7.0; on BromoTag-Brd2 [2] (Ab: Brd4^BD2 L387A, single stereoisomers, 8-point 10 μM-1 nM, 6 h, mean (±S.E.) of two repeats), 7.8 ± 0.2; at BromoTag-Brd2 [2] (Ab: BromoTag-Brd2, single stereoisomers, 8-point 10 μM-1 nM, 6 h, mean (±S.E.) of two repeats) it was 7.9 ± 0.1; on BromoTag-Brd2 [2] (BromoTag'ed BRD2 (P25440), N-term tag, Table 6), 7.8; in data set [4] (BromoTag'ed VPS34/PK3C3, N-term tag), 8.0. Further, the DC50 at BromoTag-Brd2 [2] (6 h, range over the two antibodies, listed as 46) was 13 to 15 nM and < 15 nM. The “time to completely degrade BromoTag-Brd2” value at BromoTag-Brd2 [3] is listed as no more than 6 h. For the same compound, in data set [5], the “F (%)” value is 140%.
